Measured values as given in ChEMBL document CHEMBL1136837, “Unified QSAR approach to antimicrobials. 4. Multi-target QSAR modeling and comparative multi-distance study of the giant components of antiviral drug-drug complex networks” (Bioorg Med Chem, 2009).
Non-standard residues stand in square brackets, D forms with d. Residues, ends and D or L forms follow the SMILES beside them. *: point of attachment. Dip = N[C@H](C(=O)O)C(c1ccccc1)c1ccccc1; Cha = N[C@@H](CC1CCCCC1)C(=O)O; NHPhenethyl = c1ccc(CCN*)cc1; NHBn = c1ccc(CN*)cc1

Key:
[1] = system: Hepatitis C virus; assay: Antiviral activity against Hepatitis C virus; format: functional, organism-based, Hepacivirus hominis
[2] = system: Human immunodeficiency virus 1; assay: Antiviral activity against HIV1; format: functional, organism-based

Row | Compound | IC50 [2] [µM] | also measured
1 | N#Cc1c(Cl)cccc1COc1cccc(C(=O)/C=C(\O)C(=O)O)c1 |  | IC50 ([1]; Hepatitis C virus): 0.11 µM
2 | CC(=O)CC(=O)C(=O)O |  | IC50 ([1]; Hepatitis C virus): 50 µM
3 | COc1ccc2c(O[C@@H]3C[C@H]4C(=O)N[C@]5(C(=O)O)C[C@H]5/C=C\CCCCC[C@H](NC(=O)OC5CCCC5)C(=O)N4C3)cc(-n3cccc3)nc2c1 |  | IC50 ([1]; Hepatitis C virus): 0.0036 µM
4 | CC(C)(C)C(=O)CC(=O)C(=O)O |  | IC50 ([1]; Hepatitis C virus): 50 µM
5 | COc1ccc2c(O[C@@H]3C[C@H]4C(=O)N[C@]5(C(=O)O)C[C@H]5/C=C\CCCCC[C@H](NC(=O)OC5CCCC5)C(=O)N4C3)cc(-c3csc(N)n3)nc2c1 |  | IC50 ([1]; Hepatitis C virus): 0.0035 µM
6 | CC(=O)N[C@@H](CC(=O)O)C(=O)N[C@@H](CCC(=O)O)C(=O)N[C@H](C(=O)N[C@@H](CCC(=O)O)C(=O)N[C@@H](CC1CCCCC1)C(=O)N[C@@H](CS)C(=O)NCc1ccccc1)C(c1ccccc1)c1ccccc1 (Ac-DE[Dip]E[Cha]C-NHBn) |  | IC50 ([1]; Hepatitis C virus): 0.25 µM
7 | COc1ccc2c(O[C@@H]3C[C@H]4C(=O)N[C@]5(C(=O)O)C[C@H]5/C=C\CCCCC[C@H](NC(=O)OC(C)(C)C)C(=O)N4C3)cc(-c3csc(N)n3)nc2c1 |  | IC50 ([1]; Hepatitis C virus): 0.0055 µM
8 | O=C(O)[C@H](Cc1ccccc1)N(Cc1cccc(Cl)c1)C(=O)c1ccc(Cl)cc1Cl |  | IC50 ([1]; Hepatitis C virus): 1.4 µM
9 | O=C(O)[C@H](Cc1ccccc1)N(Cc1ccc(-c2nccs2)cc1)C(=O)c1ccc(Cl)cc1Cl (stereo in doubt; form 2) |  | IC50 [1]: 5.7 µM
10 | CC(=O)N[C@@H](CC(=O)O)C(=O)N[C@@H](CCC(=O)O)C(=O)N[C@H](C(=O)N[C@@H](CCC(=O)O)C(=O)N[C@@H](CC1CCCCC1)C(=O)N[C@@H](CS)C(=O)NCCc1ccccc1)C(c1ccccc1)c1ccccc1 (Ac-DE[Dip]E[Cha]C-NHPhenethyl) |  | IC50 ([1]; Hepatitis C virus): 0.007 µM
11 | CCCCOC(=O)c1cc2c([nH]c3ccccc32)c(-c2ccc3c(n2)C(=O)C(NC(=O)CCC)=CC3=O)n1 [LAV12] | 5.8 | 
12 | C=C(C)[C@@H]1CC[C@]2(C(=O)NCCCCCCCCCCC(=O)N[C@@H](CC(C)C)C(=O)OC)CC[C@]3(C)[C@H](CC[C@@H]4[C@@]5(C)CC[C@H](O)C(C)(C)[C@@H]5CC[C@]43C)[C@@H]12 | 32 | 
13 | Cc1cccc(C)c1C(=O)N1CCC(C)(N2CCC(Cc3ccc(Br)cc3)CC2)CC1 | 0.01 | 
14 | Cc1cc(C)nc(N2C(=O)CSC2c2c(Cl)cccc2Cl)c1 (stereo not given) | 0.09 | 
15 | CC(C)OC(=O)c1cn(S(=O)(=O)c2ccccc2)c2ccc(Cl)cc12 | 200 | 
16 | Cc1cc(/C=C/C#N)cc(C)c1Oc1ccnc(Nc2ccc(C#N)cc2)n1 | 0.001 | 
17 | COc1ccnc2[nH]cc(C(=O)C(=O)N3CCN(C(=O)c4ccccc4)C[C@H]3C)c12 | 0.00085 | 
18 | Cn1cc(C(=O)/C=C(/O)C(=O)O)c2ccccc21 | 37 | 
19 | Cc1cccc(C)c1C(=O)N1CCC(C)(N2CCC(Cc3ccc(Cl)cc3)CC2)CC1 | 0.023 | 
20 | Cc1cc(S(N)(=O)=O)ccc1NC(=O)COc1ccc(Cl)cc1C(=O)c1cc(F)cc(C(F)(F)F)c1 | 0.004 | 
21 | Cc1cc(=O)oc2c3c(c(CO)cc12)OC(C)(C)[C@H](OC(=O)[C@@]12CC[C@](C)(C(=O)O1)C2(C)C)[C@@H]3OC(=O)[C@@]12CC[C@](C)(C(=O)O1)C2(C)C | 15 | 
22 | Cc1c(O)cccc1C(=O)N[C@@H](CSc1ccccc1)[C@H](O)CN1C[C@H]2CCCC[C@H]2C[C@H]1C(=O)NC(C)(C)C | 0.027 | 
23 | Nc1nc(O)c2ncn([C@@H]3O[C@H](CO)C=C3F)c2n1 | 2.6 | 
24 | Cc1cn([C@H]2C=C[C@@](C#CCl)(CO)O2)c(=O)[nH]c1=O | 100 | 
25 | Cc1ccc(S(=O)(=O)c2c(C(=O)NN)[nH]c3ccc(Cl)cc23)cc1 | 0.05 | 

Row | Compound | IC50 [2] [µM] | also measured
26 | O=C(O)/C(O)=C/C(=O)c1ccnc2ccccc12 | 100 | 
27 | Nc1nc2c(ncn2C2C=CC(OCP(=O)(O)OP(=O)(O)C(F)(F)P(=O)(O)OP(=O)(O)COC3C=CC(n4cnc5c(N)ncnc54)C3)C2)c(=O)[nH]1 (stereo not given) | 15 | 
28 | Nc1ccn([C@@H]2CC(F)(F)[C@H](CO)O2)c(=O)n1 | 11.5 | 
29 | CCOC(=O)c1cc2ccccc2n1S(=O)(=O)c1ccccc1[N+](=O)[O-] | 200 | 
30 | Nc1nc(NC2CC2)c2ncn([C@H]3C=C[C@@H](CO)O3)c2n1 | 8.6 | 
31 | O=C(O)/C(O)=C/C(=O)c1ccc(C(=O)/C=C(\O)C(=O)O)cc1 | 1.28 | 
32 | C=C(C)[C@@H]1CC[C@]2(C(=O)NCCCCCCCC(=O)N[C@@H](CC(C)C)[C@H](O)CC(=O)O)CC[C@]3(C)[C@H](CC[C@@H]4[C@@]5(C)CC[C@H](O)C(C)(C)[C@@H]5CC[C@]43C)[C@@H]12 | 0.33 | 
33 | NNC(=O)c1[nH]c2ccc(Cl)cc2c1Sc1ccc(Cl)cc1 | 10 | 
34 | CCN(CC)Cc1cc2ccc3c(c2oc1=O)[C@@H](OC(=O)[C@@]12CC[C@](C)(C(=O)O1)C2(C)C)[C@@H](OC(=O)[C@@]12CC[C@](C)(C(=O)O1)C2(C)C)C(C)(C)O3 | 14.1 | 
35 | O=C(O)/C(O)=C/C(=O)c1c[nH]c2ccc(Cl)cc12 | 0.52 | 
36 | Nc1ccn([C@H]2CC(F)(F)[C@H](CO)O2)c(=O)n1 | 100 | 
37 | Nc1nc(O)c2ncn([C@H]3C=C(F)[C@H](CO)O3)c2n1 | 100 | 
38 | O=c1nc(O)ccn1[C@@H]1C=C(F)[C@H](CO)O1 | 100 | 
39 | Cc1c(Cc2c(F)cccc2F)nc(NC2CCCC2)[nH]c1=O | 0.03 | 
40 | C=C(C)[C@@H]1CC[C@]2(C(=O)NCCCCCCCCCCC(=O)N[C@@H](CC(C)C)C(=O)O)CC[C@]3(C)[C@H](CC[C@@H]4[C@@]5(C)CC[C@H](O)C(C)(C)[C@@H]5CC[C@]43C)[C@@H]12 | 0.46 | 
41 | CCOC(=O)c1[nH]c2ccccc2c1S(=O)(=O)c1cc(Cl)ccc1N | 200 | 
42 | Cc1ncc([N+](=O)[O-])n1CCOC(c1ccccc1)c1cc(Cl)cc(Cl)c1 (stereo not given) | 45 | 
43 | Cc1cn([C@H]2C=C[C@@](C#N)(CO)O2)c(=O)[nH]c1=O | 7 | 
44 | Cc1cn([C@@H]2S[C@H](CO)C=C2F)c(=O)nc1O | 92.3 | 
45 | O=S(=O)(c1ccccc1)n1ccc2ccccc21 | 150 | 
46 | Cc1c(CO)c(=O)oc2c3c(ccc12)OC(C)(C)[C@H](OC(=O)C12CCC(C)(C(=O)O1)C2(C)C)[C@@H]3OC(=O)C12CCC(C)(C(=O)O1)C2(C)C (stereo not given in full) | 24.9 | 
47 | O=C(O)C(=C\c1ccc(O)c(O)c1)/C(=C\c1ccc(O)c(O)c1)C(=O)O | 2.19 | 
48 | Cc1cc(C)nc(N2C(=O)CSC2c2c(F)cccc2F)c1 (stereo not given) | 0.059 | 
49 | O=c1cc(Cc2c(F)cccc2F)nc(NC2CCCC2)[nH]1 | 0.07 | 
50 | CC(C)CN(C[C@@H](O)[C@H](Cc1ccccc1)NC(=O)O[C@H]1CCOC1)S(=O)(=O)c1ccc(N)cc1 | 0.002 | 

Row | Compound | IC50 [2] [µM] | also measured
51 | Nc1nc(Cl)c2ncn([C@@H]3O[C@H](CO)C=C3F)c2n1 | 4.3 | 
52 | Nc1nc(=O)n([C@@H]2S[C@H](CO)C=C2F)cc1F | 11.6 | 
53 | C=C(C)[C@@H]1CC[C@]2(C(=O)NCCC(=O)N[C@@H](CC(C)C)C(=O)O)CC[C@]3(C)[C@H](CC[C@@H]4[C@@]5(C)CC[C@H](O)C(C)(C)[C@@H]5CC[C@]43C)[C@@H]12 | 39 | 
54 | Cc1cn([C@@H]2O[C@H](CO)C=C2F)c(=O)nc1N | 100 | 
55 | Cc1cccc(S(=O)(=O)c2c(C(N)=O)[nH]c3ccc(Cl)cc23)c1 | 0.001 | 
56 | [N-]=[N+]=NC[C@H]1O[C@@H](n2c(Cl)c(C=O)c3cc(Cl)c(Cl)cc32)[C@H](O)[C@@H]1O | 10 | 
57 | COc1ccc(F)cc1-c1nc2c(N)cccc2n1Cc1c(F)cccc1F | 2.71 | 
58 | Cc1ncc([N+](=O)[O-])n1CCOC(c1ccccc1)c1cccc(-n2cccc2)c1 (stereo not given) | 14 | 
59 | C=C(C)[C@@H]1CC[C@]2(C(=O)NCCCCCCCC(=O)N[C@@H](CC(C)C)[C@H](O)CC(=O)OCc3ccccc3)CC[C@]3(C)[C@H](CC[C@@H]4[C@@]5(C)CC[C@H](OC(C)=O)C(C)(C)[C@@H]5CC[C@]43C)[C@@H]12 | 28 | 
60 | NNC(=O)c1[nH]c2ccc(Cl)cc2c1S(=O)(=O)c1ccccc1 | 0.01 | 
61 | CC(=O)c1ccc2[nH]c(C(N)=O)c(S(=O)(=O)c3cc(C)cc(C)c3)c2c1 | 0.015 | 
62 | CC(=O)NC1=CC(=O)c2ccc(-c3[nH]c(C(=O)O)cc4c5ccccc5nc3-4)nc2C1=O | 13.3 | 
63 | COC(=O)C(=O)CC(=O)c1cn(C)c2cc3c(cc12)OCO3 | 31 | 
64 | OC[C@@H]1O[C@H](n2cnc3c(O)ncnc32)CC1(F)F | 100 | 
65 | CCOC(=O)c1[nH]c2c(Cl)cccc2c1S(=O)(=O)c1ccccc1N | 200 | 
66 | Cc1cccnc1N1C(=O)CSC1c1c(F)cccc1F (stereo not given) | 53.5 | 
67 | CCOC(=O)Cc1c(N)nc(N)nc1OCCOCP(=O)(O)O | 0.0003 | 
68 | O=c1nc(O)ccn1[C@@H]1S[C@H](CO)C=C1F | 100 | 
69 | Cc1c(C(C)c2c(F)cccc2F)nc(SC2CCCC2)[nH]c1=O (stereo not given) | 0.005 | 
70 | NC(=O)c1[nH]c2ccccc2c1Sc1cc(Cl)ccc1N | 9 | 
71 | Cc1ccnc(N2C(=O)CSC2c2c(F)cccc2Cl)c1 (stereo not given) | 0.099 | 
72 | CC1(C)Oc2ccc3cc(CN)c(=O)oc3c2[C@@H](OC(=O)[C@@]23CC[C@](C)(C(=O)O2)C3(C)C)[C@H]1OC(=O)[C@@]12CC[C@](C)(C(=O)O1)C2(C)C | 15.4 | 
73 | C=C(C)[C@@H]1CC[C@]2(C(=O)NCCCCCCCCCCC(=O)O)CC[C@]3(C)[C@H](CC[C@@H]4[C@@]5(C)CC[C@H](O)C(C)(C)[C@@H]5CC[C@]43C)[C@@H]12 | 0.7 | 
74 | Nc1ncnc2c1ncn2[C@@H]1O[C@H](CO)C=C1F | 0.44 | 
75 | O=C(O)/C(O)=C/C(=O)c1cccc(C(=O)/C=C(\O)C(=O)O)c1 | 1.83 | 
